Each block holds one compound with its values, some of them ahead of it.
Assay: Solubility of dichroic dye compound in cyclopentanone (absorbance method)
Assay type: physicochemical
Conditions: for Solubility (evaluation grade) / Solubility (wt %): in cyclopentanone; for solubility (in words): solubility to solvent, comparison between examples
Experimental: The solubilities of the dichroic dye compounds D1 and D4 to D24 used in the examples and the comparative examples were measured as follows.
0.1 g of each dichroic dye compound was added to 2 g of cyclopentanone, and dissolved with ultrasonic waves. Then, 0.2 g of the solution portion was weighed and diluted with 45 g of cyclopentanone. The absorption spectrum of the cyclopentanone solution was measured to obtain an absorbance A (for solubility measurement).
Separately, 0.1 mg of each dichroic dye compound was completely dissolved in 100 g of cyclopentanone, and the absorption spectrum was measured to obtain an absorbance B (having a known concentration).
From data of the obtained two absorbances, the solubility was calculated by the following formula.
The evaluation standards are as follows.
A: The solubility is 2.5 mass % or greater.
B: The solubility is 1.0 mass % or greater and ess than 2.5 mass %.
C: The solubility is less than 1.0 mass %.

SMILES: C=CC(=O)OCCCCOc1ccc(N=Nc2ccc(N=Nc3ccc(N=Nc4ccc(N=Nc5ccc(OCCCCOC(=O)C=C)cc5)c(OC)c4)c(OC)c3)cc2)cc1 [D18]
Solubility (evaluation grade): B (The solubility is 1.0 mass % or greater and ess than 2.5 mass %.)
Solubility (wt %): 2.1 wt %

SMILES: Cc1cc(/N=N/c2ccc(OCCCCOCC3(C)COC3)cc2)ccc1/N=N/c1ccc(/N=N/c2ccc(OCCCCOCC3(C)COC3)cc2)cc1 [D11]
Solubility (evaluation grade): A (The solubility is 2.5 mass % or greater.)
Solubility (wt %): 3.3 wt %

SMILES: C=CC(=O)OCCCCOc1ccc(/N=N/c2ccc(/N=N/c3ccc(/N=N/c4ccc(OCCCCOC(=O)C=C)cc4)cc3OCCOCCOCCOC)cc2)cc1 [D8]
Solubility (evaluation grade): A (The solubility is 2.5 mass % or greater.)
Solubility (wt %): 4.8 wt %
solubility (in words): more excellent solubility

SMILES: C=CC(=O)OCCCCOc1ccc(/N=N/c2ccc(/N=N/c3ccc(/N=N/c4ccc(OCCCCOC(=O)C=C)cc4)cc3)cc2)cc1 [D12, reference compound]
Solubility (evaluation grade): C (The solubility is less than 1.0 mass %.)
Solubility (wt %): 0.8 wt %
solubility (in words): the solubility to a solvent deteriorates

SMILES: C=CC(=O)OCCCCOc1ccc(/N=N/c2ccc(/N=N/c3ccc(/N=N/c4ccc(OCCCCCCC)cc4)cc3)c(C)c2)cc1 [D10]
Solubility (evaluation grade): A (The solubility is 2.5 mass % or greater.)
Solubility (wt %): 2.8 wt %

SMILES: C=CC(=O)OCCCCOc1ccc(N=Nc2ccc(N=Nc3ccc(N=Nc4ccc(OCCCCOC(=O)C=C)cc4)c(OC)c3)c(OC)c2)cc1 [D14]
Solubility (evaluation grade): A (The solubility is 2.5 mass % or greater.)
Solubility (wt %): 3.1 wt %

SMILES: C=CC(=O)OCCCCOc1ccc(N=Nc2ccc(N=Nc3ccc(N=Nc4ccc(OCCCCOC(=O)C=C)c(OC)c4)cc3C)cc2)cc1OC [D15]
Solubility (evaluation grade): A (The solubility is 2.5 mass % or greater.)
Solubility (wt %): 4.3 wt %

SMILES: CCCCc1ccc(N=Nc2ccc(N=Nc3c(C)cc(N=Nc4cc(C)c(N=Nc5ccc(N=Nc6ccc(CCCC)cc6)cc5)c(C)c4)cc3C)cc2)cc1 [D24, reference compound]
Solubility (evaluation grade): C (The solubility is less than 1.0 mass %.)
Solubility (wt %): <0.1 wt %

SMILES: C=CC(=O)OCCCCOc1ccc(N=Nc2ccc(N=Nc3ccc(N=Nc4ccc(OCCCCOC(=O)C=C)cc4OCCOC)cc3C)cc2)c(OCCOC)c1 [D20]
Solubility (evaluation grade): A (The solubility is 2.5 mass % or greater.)
Solubility (wt %): >5 wt %

SMILES: C=CC(=O)OCCCCOc1ccc(N=Nc2ccc(N=Nc3ccc(N=Nc4ccc(N=Nc5ccc(OCCCCOC(=O)C=C)cc5)cc4)cc3)cc2)cc1 [D22, reference compound]
Solubility (evaluation grade): C (The solubility is less than 1.0 mass %.)
Solubility (wt %): 0.3 wt %

SMILES: C=CC(=O)OCCCCOc1ccc(/N=N/c2ccc(/N=N/c3ccc(/N=N/c4ccc(OCCCCOC(=O)C=C)cc4)c4ccccc34)cc2)cc1 [D13, reference compound]
Solubility (evaluation grade): B (The solubility is 1.0 mass % or greater and ess than 2.5 mass %.)
Solubility (wt %): 1.5 wt %

SMILES: C=CC(=O)OCCOc1ccc(/N=N/c2ccc(/N=N/c3ccc(/N=N/c4ccc(OCCOC(=O)C=C)cc4)cc3C)cc2)cc1 [D9]
Solubility (evaluation grade): A (The solubility is 2.5 mass % or greater.)
Solubility (wt %): 4.3 wt %

SMILES: C=CC(=O)OCCCCOc1ccc(N=Nc2ccc(N=Nc3ccc(N=Nc4ccc(OCCCCOC(=O)C=C)cc4OC)cc3C)cc2)c(OC)c1 [D16]
Solubility (evaluation grade): A (The solubility is 2.5 mass % or greater.)
Solubility (wt %): 5.0 wt %
solubility (in words): more excellent solubility

SMILES: C=CC(=O)OCCCCOc1ccc(N=Nc2ccc(N=Nc3ccc(N=Nc4ccc(N=Nc5ccc(N=Nc6ccc(OCCCCOC(=O)C=C)c(C(F)(F)F)c6)c(C)c5)cc4)c(C)c3)cc2)cc1C(F)(F)F [D23]
Solubility (evaluation grade): B (The solubility is 1.0 mass % or greater and ess than 2.5 mass %.)
Solubility (wt %): 1.2 wt %

Further lines, with some results ahead:

Solubility (wt %): >5 wt %
SMILES: C=CC(=O)OCCCCOc1ccc(N=Nc2ccc(N=Nc3ccc(N=Nc4ccc(OCCCCOC(=O)C=C)c(C(F)(F)F)c4)cc3)cc2)cc1 [D19]
Solubility (evaluation grade): A (The solubility is 2.5 mass % or greater.)

Solubility (wt %): 18 wt %
solubility (in words): more excellent solubility
SMILES: C=CC(=O)OCCCCOc1ccc(/N=N/c2ccc(/N=N/c3ccc(OCCCCOC(=O)C=C)cc3C)cc2)cc1 [D6]
Solubility (evaluation grade): A (The solubility is 2.5 mass % or greater.)

Solubility (wt %): 5.7 wt %
SMILES: C=CC(=O)OCCCCOc1ccc(/N=N/c2ccc(/N=N/c3ccc(OCCCCOC(=O)C=C)cc3)cc2)cc1 [D4]
Solubility (evaluation grade): A (The solubility is 2.5 mass % or greater.)

Solubility (wt %): 4.5 wt %
solubility (in words): more excellent solubility
SMILES: C=CC(=O)OCCCCOc1ccc(/N=N/c2ccc(/N=N/c3ccc(/N=N/c4ccc(OCCCCOC(=O)C=C)cc4)cc3C)cc2)cc1 [D1]
Solubility (evaluation grade): A (The solubility is 2.5 mass % or greater.)

Solubility (wt %): 1.5 wt %
SMILES: C=CC(=O)OCCCCOc1ccc(N=Nc2ccc(N=Nc3ccc(N=Nc4ccc(OCCCCOC(=O)C=C)cc4O)cc3)c(C)c2)cc1 [D21]
Solubility (evaluation grade): B (The solubility is 1.0 mass % or greater and ess than 2.5 mass %.)

Solubility (wt %): 42 wt %
solubility (in words): more excellent solubility
SMILES: C=CC(=O)OCCCCOc1ccc(/N=N/c2ccc(/N=N/c3ccc(OCCCCOC(=O)C=C)c(C(F)(F)F)c3)cc2)cc1 [D7]
Solubility (evaluation grade): A (The solubility is 2.5 mass % or greater.)

Solubility (wt %): 6.8 wt %
SMILES: C=CC(=O)OCCCCOc1ccc(/N=N/c2ccc(/N=N/c3ccc(OCCCCOC(=O)C=C)c(C)c3)cc2)cc1 [D5]
Solubility (evaluation grade): A (The solubility is 2.5 mass % or greater.)

Solubility (wt %): 3.2 wt %
SMILES: C=CC(=O)OCCCCOc1ccc(N=Nc2ccc(N=Nc3ccc(N=Nc4ccc(OCCCCOC(=O)C=C)cc4)c(C)c3)c(OC)c2)cc1 [D17]
Solubility (evaluation grade): A (The solubility is 2.5 mass % or greater.)
